From ChEMBL document CHEMBL5370624 (J Med Chem, 2023)
Active and inactive are the calls of the source. No cut-off for these calls is given here.

Experiments:
[1] = molecular target: T1, Toll-like receptor 4 (Homo sapiens, UniProt O00206); assay: Agonist activity at human TLR4 in human HEK-Blue hTLR4 cells assessed as NF-kappaB activation incubated for 48 hrs by SEAP reporter gene based Quanti-blue assay; format: cell-based
[2] = molecular target: T1, Toll-like receptor 4; assay: Agonist activity at TLR4 in human MONO-MAC-6 cells assessed as induction of MIP-1beta release incubated for 24 hrs by ELISA; format: cell-based
[3] = molecular target: T1, Toll-like receptor 4; assay: Agonist activity at TLR4 in human PBMC cells assessed as induction of TNFalpha release incubated for 20 hrs by ELISA; format: cell-based
[4] = molecular target: T1, Toll-like receptor 4; assay: Agonist activity at TLR4 in human PBMC cells assessed as induction of MIP-1beta release incubated for 20 hrs by ELISA; format: cell-based
[5] = molecular target: T1, Toll-like receptor 4; assay: Agonist activity at TLR4 in human PBMC cells assessed as induction of IL-1beta release incubated for 20 hrs by ELISA; format: cell-based
[6] = molecular target: T2, Toll-like receptor 4 (Mus musculus, UniProt Q9QUK6); assay: Agonist activity at TLR4 in mouse RAW264.7 cells assessed as induction of MIP-1beta release incubated for 24 hrs by ELISA; format: cell-based
T2 sequence (Q9QUK6 whole entry): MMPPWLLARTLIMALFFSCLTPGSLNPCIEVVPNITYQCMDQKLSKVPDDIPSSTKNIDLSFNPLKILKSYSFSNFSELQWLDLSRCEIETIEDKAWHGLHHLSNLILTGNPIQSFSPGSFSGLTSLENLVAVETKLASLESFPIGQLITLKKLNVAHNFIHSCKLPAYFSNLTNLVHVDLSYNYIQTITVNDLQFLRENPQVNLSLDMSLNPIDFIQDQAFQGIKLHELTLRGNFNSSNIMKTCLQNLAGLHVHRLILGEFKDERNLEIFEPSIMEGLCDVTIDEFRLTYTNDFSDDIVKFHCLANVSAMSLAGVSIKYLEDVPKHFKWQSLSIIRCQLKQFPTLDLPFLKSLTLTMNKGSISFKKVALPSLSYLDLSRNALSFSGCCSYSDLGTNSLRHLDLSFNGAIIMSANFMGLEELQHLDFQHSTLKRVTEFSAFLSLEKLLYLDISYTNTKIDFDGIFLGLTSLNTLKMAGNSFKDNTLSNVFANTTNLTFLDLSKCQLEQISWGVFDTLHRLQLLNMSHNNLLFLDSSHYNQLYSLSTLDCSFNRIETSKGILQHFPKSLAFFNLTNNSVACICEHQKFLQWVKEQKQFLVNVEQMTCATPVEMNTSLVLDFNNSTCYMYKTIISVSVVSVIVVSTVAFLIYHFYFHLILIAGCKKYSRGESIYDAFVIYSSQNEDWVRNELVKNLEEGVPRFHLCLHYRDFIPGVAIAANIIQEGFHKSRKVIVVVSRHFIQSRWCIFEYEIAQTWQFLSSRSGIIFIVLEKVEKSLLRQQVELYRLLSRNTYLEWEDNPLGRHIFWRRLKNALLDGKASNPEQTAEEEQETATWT

[7] = molecular target: T2, Toll-like receptor 4; assay: Agonist activity at mouse TLR4 in human HEK-Blue mTLR4 cells assessed as NF-kappaB activation incubated for 48 hrs by SEAP reporter gene based Quanti-blue assay; format: cell-based
[8] = molecular target: T1, Toll-like receptor 4; assay: Agonist activity at TLR4 in human PBMC cells assessed as induction of RANTES release incubated for 20 hrs by ELISA; format: cell-based
[9] = Aqueous stability of the compound assessed as drug degradation at 2 to 8 degreeC and measured upto 12 months by RP-HPLC analysis; format: physicochemical; details: buffer, 8760 h
[10] = Aqueous stability of the compound assessed as drug degradation at 2 to 8 degreeC and measured upto 12 months by LC-MS analysis; format: physicochemical; details: buffer, 8760 h
[11] = Aqueous stability of the compound assessed as drug degradation at 40 degreeC and measured upto 12 months by LC-MS analysis; format: physicochemical
[12] = tested on: PBMC; assay: Cytotoxicity against human PBMC cells assessed as reduction in cell viability upto 10 ug/ml incubated for 18 to 24 hrs by PrestoBlue reagent based assay; format: toxicity; details: time 18-24 hrs, dose < 10 µg/ml
[13] = species on record: Mus musculus; assay: Immuno-adjuvant activity in H3N2-split A/Victoria/210/2009 influenza virus-immunized BALB/c mouse model assessed as increase in influenza specific serum IgG1 titer level at 0.001 to 0.1 ug,IM and measured after 14 days by ELISA; format: functional, organism-based; details: dose 0.001-0.1 µg, time 14.0 day
[14] = Toxicity in H3N2-split A/Victoria/210/2009 influenza virus-immunized BALB/c mouse model assessed as reactogenicity at 0.001 to 0.1 ug,IM administered on day 0 and 14 and measured after 28 days; details: in vivo, 672 h, dose 0.001-0.1 µg, time 28 day
[15] = species on record: Mus musculus; assay: Immuno-adjuvant activity in H3N2-split A/Victoria/210/2009 influenza virus-immunized BALB/c mouse model assessed as increase in influenza specific serum IgG titer level at 0.001 to 0.1 ug,IM and measured after 14 days by ELISA; format: functional, organism-based; details: dose 0.001-0.1 µg, time 14.0 day
[16] = species on record: Mus musculus; assay: Immuno-adjuvant activity in H3N2-split A/Victoria/210/2009 influenza virus-immunized BALB/c mouse model assessed as increase in influenza specific serum IgG2a titer level at 0.001 to 0.1 ug,IM and measured after 14 days by ELISA; format: functional, organism-based; details: dose 0.001-0.1 µg, time 14.0 day
[17] = tested on: Mus musculus; assay: Immuno-adjuvant activity in H3N2-split A/Victoria/210/2009 influenza virus-immunized BALB/c mouse model assessed as increase in influenza specific serum IgG2a titer level at 0.001 to 0.1 ug,IM administered on day 0 and 14 and measured after 28 days by ELISA; format: functional, organism-based; details: dose 0.001-0.1 µg, time 28.0 day
[18] = Toxicity in H3N2-split A/Victoria/210/2009 influenza virus-immunized BALB/c mouse model assessed as abnormality at 0.001 to 0.1 ug,IM administered on day 0 and 14 and measured after 28 days; details: in vivo, 672 h, dose 0.001-0.1 µg, time 28 day
[19] = tested on: Mus musculus; assay: Immuno-adjuvant activity in H3N2-split A/Victoria/210/2009 influenza virus-immunized BALB/c mouse model assessed as increase in influenza specific serum IgG titer level at 0.001 to 0.1 ug,IM administered on day 0 and 14 and measured after 28 days by ELISA; format: functional, organism-based; details: dose 0.001-0.1 µg, time 28.0 day
[20] = tested on: Mus musculus; assay: Immuno-adjuvant activity in H3N2-split A/Victoria/210/2009 influenza virus-immunized BALB/c mouse model assessed as increase in influenza specific serum IgG1 titer level at 0.001 to 0.1 ug,IM administered on day 0 and 14 and measured after 28 days by ELISA; format: functional, organism-based; details: dose 0.001-0.1 µg, time 28.0 day
[21] = Aqueous stability of the compound assessed as drug degradation at 40 degreeC and measured after 12 months by RP-HPLC analysis; format: physicochemical; details: aqueous solution, read-out: Drug degradation

T1 sequence (O00206 whole entry): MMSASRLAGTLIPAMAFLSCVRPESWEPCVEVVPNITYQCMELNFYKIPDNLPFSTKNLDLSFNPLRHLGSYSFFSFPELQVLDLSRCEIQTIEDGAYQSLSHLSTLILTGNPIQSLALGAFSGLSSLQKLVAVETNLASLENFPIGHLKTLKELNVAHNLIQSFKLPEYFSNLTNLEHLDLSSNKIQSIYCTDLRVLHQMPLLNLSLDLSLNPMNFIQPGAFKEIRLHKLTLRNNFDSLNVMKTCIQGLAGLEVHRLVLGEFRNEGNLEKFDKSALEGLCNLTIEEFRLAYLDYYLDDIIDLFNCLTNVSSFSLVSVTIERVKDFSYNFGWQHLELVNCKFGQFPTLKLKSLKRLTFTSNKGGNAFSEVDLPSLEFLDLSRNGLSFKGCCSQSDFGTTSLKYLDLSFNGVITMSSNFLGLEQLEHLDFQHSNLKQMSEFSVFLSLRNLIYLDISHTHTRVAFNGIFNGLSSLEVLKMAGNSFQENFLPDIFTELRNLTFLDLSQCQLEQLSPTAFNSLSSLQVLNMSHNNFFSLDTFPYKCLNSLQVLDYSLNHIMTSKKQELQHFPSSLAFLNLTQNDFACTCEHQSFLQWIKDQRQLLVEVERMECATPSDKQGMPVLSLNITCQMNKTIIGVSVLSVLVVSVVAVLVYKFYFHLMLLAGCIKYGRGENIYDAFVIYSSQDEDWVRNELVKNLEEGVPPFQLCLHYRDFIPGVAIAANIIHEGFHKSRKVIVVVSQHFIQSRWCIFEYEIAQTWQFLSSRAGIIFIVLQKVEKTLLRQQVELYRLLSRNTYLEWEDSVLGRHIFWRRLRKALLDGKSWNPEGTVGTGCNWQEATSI

CCCCCCCCCCCCCCCC(=O)O[C@H](CCCCCCCCCCC)CC(=O)N[C@@H]1[C@@H](O)[C@H](O)[C@@H](CO[C@@H]2O[C@H](CO)[C@@H](OP(=O)(O)O)[C@H](OC(=O)C[C@@H](CCCCCCCCCCC)OC(=O)CCCCCCCCCCCCC)[C@H]2NC(=O)C[C@@H](CCCCCCCCCCC)OC(=O)CCCCCCCCCCC)O[C@@H]1O
EC50 [1]: 246 nM
EC50 [2]: 6.37 nM
EC50 [3]: 200 nM
EC50 [4]: 23.7 nM
EC50 [5]: 42.4 nM
EC50 [6]: 3.73 nM
EC50 [7]: 6.54 nM
EC50 [8]: 31.5 nM

CCCCCCCCCCC[C@H](CC(=O)NCCO[C@@H]1O[C@H](CO)[C@@H](OP(=O)(O)O)[C@@H](NC(=O)C[C@@H](CCCCCCCCCCC)OC(=O)CCCCCCCCC)[C@H]1NC(=O)C[C@@H](CCCCCCCCCCC)OC(=O)CCCCCCCCC)OC(=O)CCCCCCCCC.CCN(CC)CC
EC50 [1]: 91.9 nM
EC50 [2]: 1.65 nM
Stability [9]: Stable
Stability [10]: Stable
EC50 [3]: 28 nM
EC50 [4]: 1.61 nM
EC50 [5]: 8.77 nM
EC50 [6]: 0.26 nM
EC50 [7]: 0.37 nM
Stability ([11]; buffer, 8760 h): Stable
EC50 [8]: 3.68 nM

CCCCCCCCCCC[C@H](CC(=O)N[C@H]1[C@H](OC[C@H](NC(=O)C[C@@H](CCCCCCCCCCC)OC(=O)CCCCCCCCC)C(=O)O)O[C@H](CO)[C@@H](OP(=O)(O)O)[C@@H]1OC(=O)C[C@@H](CCCCCCCCCCC)OC(=O)CCCCCCCCC)OC(=O)CCCCCCCCC
Activity [12]: Non-Toxic

CCCCCCCCCCC[C@H](CC(=O)NCCO[C@@H]1O[C@H](CO)[C@@H](OS(=O)(=O)O)[C@@H](NC(=O)C[C@@H](CCCCCCCCCCC)OC(=O)CCCCCCCCC)[C@H]1NC(=O)C[C@@H](CCCCCCCCCCC)OC(=O)CCCCCCCCC)OC(=O)CCCCCCCCC.CCN(CC)CC
EC50 [1]: 449 nM
Activity [13]: Dose-Dependent Effect
Activity [14]: Non-Toxic
Activity [15]: Dose-Dependent Effect
Activity [16]: Dose-Dependent Effect
EC50 [2]: 39.5 nM
Stability [9]: Stable
Stability [10]: Stable
EC50 [3]: 116 nM
EC50 [4]: 2.87 nM
Activity [17]: Active
Activity [18]: Non-Toxic
Activity [19]: Active
EC50 [5]: 20.4 nM
EC50 [6]: 0.31 nM
EC50 [7]: 2.64 nM
Activity [20]: Active
degraded at 8760 h [21]: < 10%
degraded at 8760 h ([11]; aqueous solution, read-out: Drug degradation): 8%
EC50 [8]: 7.01 nM
